Where “and” joins values, the source holds several entries; their conditions need not be identical. Equal entries are not always repeated.

We go through one molecule from article PMC7944402, “Resin-acid derivatives bind to multiple sites on the voltage-sensor domain of the Shaker potassium channel” (The Journal of General Physiology, 2021).

The target of assay [1] is T1, Shaker KV channel M356R/A359R/R362Q/W454A (Drosophila melanogaster, UniProt P08510, A359R/DEL6-46/M356R/R362Q/W454A).
T1 construct: expressed in transfected cells; host or cells: Xenopus laevis oocytes (RNA injection)
T1 sequence (P08510 with tags, fused parts or gaps DEL6-46/M356R/A359R/R362Q/W454A): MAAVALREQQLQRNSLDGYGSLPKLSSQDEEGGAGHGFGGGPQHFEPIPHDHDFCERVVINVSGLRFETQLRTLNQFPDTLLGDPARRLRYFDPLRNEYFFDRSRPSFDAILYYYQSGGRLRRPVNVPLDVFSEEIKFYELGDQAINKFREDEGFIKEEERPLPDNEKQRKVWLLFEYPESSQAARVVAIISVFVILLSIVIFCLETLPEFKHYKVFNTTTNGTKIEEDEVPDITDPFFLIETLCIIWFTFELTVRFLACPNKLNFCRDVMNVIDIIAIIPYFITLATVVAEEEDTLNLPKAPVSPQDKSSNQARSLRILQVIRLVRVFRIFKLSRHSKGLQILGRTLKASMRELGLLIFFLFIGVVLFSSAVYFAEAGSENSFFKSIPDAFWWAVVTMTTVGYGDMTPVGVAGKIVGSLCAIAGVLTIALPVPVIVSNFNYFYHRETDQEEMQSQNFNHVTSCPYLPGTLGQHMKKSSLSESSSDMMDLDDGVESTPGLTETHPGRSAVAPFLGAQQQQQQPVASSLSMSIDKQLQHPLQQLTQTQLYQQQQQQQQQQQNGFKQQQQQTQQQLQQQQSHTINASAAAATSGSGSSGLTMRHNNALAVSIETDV
The assay can be described thus: Two-electrode voltage clamp in Xenopus oocytes: 2R motif/R362Q/W454A. It counts as cell-based. Conditions: 100 μM, pH 9.0, M356R/A359R/R362Q/W454A. The text has this:
(§1) The Shaker H4 channel (GenBank accession no. NM_167595.3; [Kamb et al., 1987]), with removed N-type inactivation due to a Δ6-46 deletion (ShH4IR, in Bluescript II KS(+) plasmid; [Hoshi et al., 1990]), is referred to as the WT Shaker KV channel. Addition of two positively charged arginines (M356R/A359R) at the extracellular top of the voltage sensor increases the effect of charged lipophilic compounds ([Ottosson et al., 2014], [2015], [2017]). […] However, for the resin-acid derivatives studied in the present investigation, R362 reduced the effect. Therefore, we specifically refer to the two added arginines just outside S4 (M356R/A359R) as the 2R motif. […]
(§2) Electrophysiological experiments were made 1–6 d after RNA injection. K^+ currents were measured with the two-electrode voltage-clamp technique (GeneClamp 500B amplifier; Axon Instruments) as described previously ([Ottosson et al., 2015]; [Silverå Ejneby et al., 2018]). […]
(§3) The conductance, G(V), was calculated as G(V)=I/(V−VK), (1) where I is the steady-state current measured at the end of each test-voltage sweep (100 ms after onset; Clampfit 10.5; Molecular Devices), V is the absolute membrane voltage, and VK is the reversal potential for K^+ ions (set to −80 mV). […] The resin-acid–induced G(V) shift was calculated as V1/2 (compound) − V1/2 (control). The relative change in GMAX was calculated as GMAX (compound) / GMAX (control). […]
In general terms: Two-electrode voltage clamp is typically applied to oocytes expressing channels or transporters.

Assay [2] addresses T2, Shaker KV channel R362Q/W454A (Drosophila melanogaster, UniProt P08510, DEL6-46/R362Q/W454A).
T2 construct: expressed in transfected cells; host or cells: Xenopus laevis oocytes (RNA injection)
Kind of assay: Two-electrode voltage clamp in Xenopus oocytes: R362Q/W454A. It counts as cell-based. Conditions: 100 μM, pH 9.0, R362Q/W454A.
From the text: as §1, §2, §3

The target in assay [3] is T3, Shaker KV channel R362Q/R365Q (Drosophila melanogaster, UniProt P08510, DEL6-46/R362Q/R365Q).
T3 construct: expressed in transfected cells; host or cells: Xenopus laevis oocytes (RNA injection)
T3 sequence (P08510 other isoform, or with tags, fused parts or gaps DEL6-46/R362Q/R365Q): as the sequence (P08510 with tags, fused parts or gaps DEL6-46/M356R/A359R/R362Q/W454A) above, with R315M, R318A, R324Q, A413W counted along it
Kind of assay: Two-electrode voltage clamp in Xenopus oocytes: R362Q/R365Q. Format: cell-based. The note with it: 100 μM, pH 9.0, R362Q/R365Q.
From the text: The Shaker H4 channel (GenBank accession no. NM_167595.3; [Kamb et al., 1987]), with removed N-type inactivation due to a Δ6-46 deletion (ShH4IR, in Bluescript II KS(+) plasmid; [Hoshi et al., 1990]), is referred to as the WT Shaker KV channel. Addition of two positively charged arginines (M356R/A359R) at the extracellular top of the voltage sensor increases the effect of charged lipophilic compounds ([Ottosson et al., 2014], [2015], [2017]). […] However, for the resin-acid derivatives studied in the present investigation, R362 reduced the effect. Therefore, we specifically refer to the two added arginines just outside S4 (M356R/A359R) as the 2R motif. Mutations were introduced with site-directed mutagenesis and verified with sequencing as described previously ([Börjesson et al., 2010]). RNA injection and oocyte handling were performed as before ([Börjesson et al., 2010]; [Ottosson et al., 2015]). All animal experiments were approved by the Linköping’s local Animal Care and Use Committee.
as §2
The conductance, G(V), was calculated as G(V)=I/(V−VK), (1) where I is the steady-state current measured at the end of each test-voltage sweep (100 ms after onset; Clampfit 10.5; Molecular Devices), V is the absolute membrane voltage, and VK is the reversal potential for K^+ ions (set to −80 mV). […] The resin-acid–induced G(V) shift was calculated as V1/2 (compound) − V1/2 (control). The relative change in GMAX was calculated as GMAX (compound) / GMAX (control). The concentration dependence for the G(V) shifts was calculated as ΔV= ΔVMAX/(1 +EC50/c), (3) where ΔV is the voltage shift, ΔVMAX is the voltage shift at saturating concentration, c is the concentration of the tested compound, and EC50 is the concentration at which half-maximum response occurs.

The target in assay [4] is T4, WT Shaker KV channel (ShH4IR) (Drosophila melanogaster, UniProt P08510, DEL6-46).
T4 construct: expressed in transfected cells; host or cells: Xenopus laevis oocytes (RNA injection)
T4 sequence (P08510 other isoform, or with tags, fused parts or gaps DEL6-46): as the sequence (P08510 with tags, fused parts or gaps DEL6-46/M356R/A359R/R362Q/W454A) above, with R315M, R318A, Q321R, A413W counted along it
The assay can be described thus: Two-electrode voltage clamp of Shaker KV channels expressed in Xenopus laevis oocytes: WT. Format: cell-based. The text has this:
The Shaker H4 channel (GenBank accession no. NM_167595.3; [Kamb et al., 1987]), with removed N-type inactivation due to a Δ6-46 deletion (ShH4IR, in Bluescript II KS(+) plasmid; [Hoshi et al., 1990]), is referred to as the WT Shaker KV channel. […] Therefore, we specifically refer to the two added arginines just outside S4 (M356R/A359R) as the 2R motif. Mutations were introduced with site-directed mutagenesis and verified with sequencing as described previously ([Börjesson et al., 2010]). RNA injection and oocyte handling were performed as before ([Börjesson et al., 2010]; [Ottosson et al., 2015]). All animal experiments were approved by the Linköping’s local Animal Care and Use Committee.
Electrophysiological experiments were made 1–6 d after RNA injection. K^+ currents were measured with the two-electrode voltage-clamp technique (GeneClamp 500B amplifier; Axon Instruments) as described previously ([Ottosson et al., 2015]; [Silverå Ejneby et al., 2018]). The amplifier’s leak compensation was used, and the currents were low-pass filtered at 5 kHz. The control solution contained (in mM) 88 NaCl, 1 KCl, 15 HEPES, 0.4 CaCl2, and 0.8 MgCl2, and pH was set with NaOH. All experiments were made at room temperature (20°C–23°C). The holding potential was set to −80 mV (or −100 mV if the mutant was not fully closed at −80 mV).
Stock solutions were stored at −20°C and diluted in control solution just before experiments. The test solution was added to the oocyte bath manually with a syringe. […] To make sure all Wu50 molecules were negatively charged, the pH of the control solution was set to 9.0 before the experiments.
The conductance, G(V), was calculated as G(V)=I/(V−VK), (1) where I is the steady-state current measured at the end of each test-voltage sweep (100 ms after onset; Clampfit 10.5; Molecular Devices), V is the absolute membrane voltage, and VK is the reversal potential for K^+ ions (set to −80 mV). The conductance was fitted with a Boltzmann equation (GraphPad Prism 5; GraphPad Software, Inc.) GK(V)=GMAX/{1+exp[(V½−V)/s]}, (2) where GMAX is the amplitude (maximal conductance) of the curve, V is the absolute membrane voltage, V1/2 is the midpoint, and s is the slope. The resin-acid–induced G(V) shift was calculated as V1/2 (compound) − V1/2 (control). The relative change in GMAX was calculated as GMAX (compound) / GMAX (control). The concentration dependence for the G(V) shifts was calculated as ΔV= ΔVMAX/(1 +EC50/c), (3) where ΔV is the voltage shift, ΔVMAX is the voltage shift at saturating concentration, c is the concentration of the tested compound, and EC50 is the concentration at which half-maximum response occurs.

Assay [5] has as its system Shaker KV channel binding sites (S3/S4, S4/pore, residual). Kind of assay: Additive model of site contributions to the G(V) shift (least squares fit). Details: species or system Drosophila melanogaster. The text has this:
We also considered a reduced dataset of five mutants for Wu50 to make the comparison between the two compounds equitable (Table S1).
The G(V) shift for each mutant was expressed as a sum of contribution from the various sites: ΔVmodel=ΔVS3/S4+ΔVS4/pore+ΔVResidual, (4) where ΔVS3/S4 is the G(V) shift due to compound binding to the S3/S4 site, ΔVS4/pore is the G(V) shift due to compound binding to the S4/pore site, and ΔVResidual is the G(V) shift due to compound binding to other sites, including the top-VSD site.
Following the assumptions based on observations made using MD simulations, ΔVS3/S4 was set to 0 if the 2R motif was missing (i.e., in the WT channel), ΔVS4/pore could adopt one of four values depending on the type of mutation (R362/W454 = WT configuration, R362Q, W454A, or R362Q/W454A), and ΔVResidual was assumed to be the same for all mutants.
The model further assumed that there is a residual effect that can be due to binding to the VSD-top site or to any other unidentified site and that the contributions due to binding to the S3/S4 site and the S4/pore site depend upon mutations at this site.

T2 sequence (P08510 with tags, fused parts or gaps DEL6-46/R362Q/W454A): as the sequence (P08510 with tags, fused parts or gaps DEL6-46/M356R/A359R/R362Q/W454A) above, with R315M, R318A counted along it

Regarding `C[C@@]1(C(=O)O)CCC[C@]2(C)c3cc(Cl)c(Cl)c(Cl)c3CC[C@@H]12` [Wu50], the “GMAX (rel.)” value in assay [1] stood at 1.50 rel; in assay [2], 1.28 rel; in assay [3] it was 0.55 rel; in assay [4] (100 μM, pH 9.0, WT, GMAX (compound)/GMAX (control)), 1.36 rel. Further, the “ΔVG(V) (G(V) shift)” value is −56.6 ± 5.8 mV and -56.6 mV in assay [1]; −41.0 ± 4.4 mV and -41.0 mV in assay [2]; −25.5 ± 4.6 mV and -25.5 mV in assay [3]; −25.5 ± 1.4 mV and -25.5 mV in assay [4] (100 μM, pH 9.0, WT). In assay [4] (WT, pH 9.0, concentration-response (Eq. 3), read-out: EC50 of the G(V) shift (apparent affinity)), the EC50 came out at 29.1 ± 3.5 µM. The “ΔVS3/S4 (contribution of the S3/S4 site in the presence of the 2R mutations)” value is on record as −17 mV in assay [5] (eight mutants) and −10 mV in assay [5] (five mutants). In addition, the “ΔVS4/pore, R362Q configuration” value in assay [5] (eight mutants) is −34 mV; in assay [5] (five mutants), −37 mV. Besides, in assay [5] (eight mutants), the “ΔVS4/pore, R362Q/W454A configuration” value is recorded as −31 mV. The “ΔVS4/pore, WT S4/pore site” value in assay [5] (eight mutants) is on record as −15 mV; in assay [5] (five mutants), −18 mV. The “ΔVResidual (contribution of other sites to the G(V) shift)” value in assay [5] (five mutants (Wu50 constrained to be the same as for eight mutants)) was −10 mV. Further, the “ΔVS4/pore, W454A configuration” value in assay [5] (no clear difference between five-mutants and eight-mutants datasets) was “+2 to −6 mV”.
